{"source": "patent US20220213030A1", "about": "“AMINOGUANIDINE HYDRAZONES AS RETROMER STABILIZERS USEFUL FOR TREATING NEUROLOGICAL DISEASES” (OSPEDALE SAN RAFFAELE SRL, priority 2019, published 2022)", "key": {"[1]": {"experiment": "Brain uptake of compound 2a in C57BL6J mice (LC-MS/MS)", "type": "in vivo", "conditions": "10 mg/Kg/day intraperitoneal; 1, 7, 15 and 30 days; saline perfused", "quoted_text": "We run a pharmacokinetic assay on C57BL6J mice that received daily intraperitoneal injections of compound 2a (10 mg/Kg/day). Mice were sacrificed after 1, 7, 15 and 30 days saline perfused to avoid the CNS contamination of compounds contained in blood circulation and brains used for the determination of compound 2a levels by mass spectrometry.\nHealthy mice were daily injected with vehicle or compound 2a (10 mg/kg) and sacrificed after 1, 7, 15 and 30 days. Upon saline perfusion, brains were dissociated from skulls, carefully weighted and rapidly stored in dry ice. Then, brains (˜400 mg) were checked for the presence of Compound 2a. […] After the extraction, each biological sample was re-suspended in 60 μl of LC/MS grade water and 5 μl analyzed by LC-MS/MS using the UPLC 1290 (Agilent Technologies) coupled to the TripleTOF 5600+ mass spectrometer (SCIEX) in positive mode. A Waters ACQUITY UPLC BEH HILIC column (2.1×10 mm, 1.7 μm) was used for the chromatographic separation through a gradient of solvent A (ACN+0.1% FA) and solvent B (H2O+0.1% FA). Calibration curves were constructed by plotting the peak area versus the corresponding concentrations using MultiQuant 2.1 software (SCIEX)."}, "[2]": {"system": "CI-MPR", "experiment": "CI-MPR MFI in MNs of G93A mice", "type": "in vivo, mouse", "conditions": "10 mg/kg, day 100", "text": "We next assayed retromer proteins labelling sections of mice sacrificed at day 100 for VPS35 and NeuN. […] Similarly, we observed that VPS26 levels were increased in G93A mice receiving compound 2a (FIG. 11B). We further corroborated our experimental finding observing that compound 2a increased retromer functionality. The cation-independent mannose 6-phosphate receptor (CI-MPR) is a cargo (Arighi et al., 2004) of the retromer complex that is unstable in VPS26 knockout cells (Seaman 2004). We observed a substantial reduction of CI-MPR MFI levels in MNs of vehicle-treated G93A mice when compared with WT litters (FIG. 11C). […] Sortilin encodes for a receptor belonging to the Vps10 family, and it has been involved in Frontotemporal Dementia (FTD), (Lane 2012).\nSections from mice (frozen cryo sections) or glass covers containing cells were washed three times in PBS 1× (Lonza, 5 min each), and incubated in the following blocking mix: PBS 1×/FBS 10% (Invitrogen), BSA 1 mg/mL (Sigma), TritonX100 0.1% (Sigma), for 1 h at room temperature. Antibodies were diluted in blocking mix and incubated at +4° C. overnight according manufacturer's instructions. […]"}, "[3]": {"system": "G93A mice", "experiment": "Motor neuron counts in ventral horn of lumbar spinal cord of G93A mice", "type": "in vivo, mouse", "conditions": "10 mg/kg daily, day 100", "method": "Mice were sacrificed at day 100, and lumbar SCs assayed for studying MNs cell morphology and numbers. We initially scored NeuN^+ neurons in the ventral horn of the SC to monitor bona fide motor neurons.\nSections from mice (frozen cryo sections) or glass covers containing cells were washed three times in PBS 1× (Lonza, 5 min each), and incubated in the following blocking mix: PBS 1×/FBS 10% (Invitrogen), BSA 1 mg/mL (Sigma), TritonX100 0.1% (Sigma), for 1 h at room temperature. Antibodies were diluted in blocking mix and incubated at +4° C. overnight according manufacturer's instructions. The following day, sections were rinsed in PBS and fluorescent secondary antibodies—i.e. never deriving from the species from which the primary antibodies are derived—(Alexafluor conjugated) diluted in blocking mix, were used according to the manufacturer's instructions. Slides were incubated in Hoechst 33342 (Sigma) for nuclei counterstaining. When necessary, we performed antigens retrieval by boiling samples in 10 mM sodium citrate (pH 6) for 5 min. […]\nMice were maintained under pathogen-free conditions at San Raffaele Hospital mouse facility (Milan, Italy). […] Animal cohort numbers were determined by power analysis based on preliminary results."}, "[4]": {"system": "Vps35, Vps26 and Vps29 mRNA", "experiment": "Real time PCR of CRC genes in Neuro2a", "type": "cell-based, mouse", "conditions": "10 μM, 48 hours", "method": "Compound 2a increases the stability of the retromer complex in vitro. We further validated this concept by measuring VPS35 degradation rates by a cycloheximide (CHX) chase assay. Neuro2a cells received vehicle or lead 2a (10 μM) for 24 hours, then CHX was added to the medium, and VPS35 levels were measured by western blot. […] As is the case with R55 (Mecozzi, Berman et al. 2014), compound 2a should not influence the transcription levels of CRC genes in Neuro2a cells.\nLumbar spinal tracts dissected from saline perfused mice or Neuro2a cells were lysed to extract total RNAs using the RNeasy Mini Kit (Qiagen) according to the manufacturer's recommendations, including DNase (Promega) digestion. We synthetized the cDNA using ThermoScript RT-PCR System (Invitrogen) and Random Hexamer (Invitrogen), according to the manufacturer's instructions. The LightCycler 480 System (Roche) and LightCycler 480 SYBR Green I Master Mix (Roche) were used for real-time PCR experiments. Normalization was obtained using the housekeeping gene Histone H3\n(H3 F: 5′-[…]-3′ H3 R: 5′-[…]-3′). The following specific primers were used for gene expression analysis: […]"}}}
{"smiles": "N=C(N)NN=Cc1cccc(C=NNC(=N)N)c1", "note": "[Compound 2a, 1,3-Bis-amino guanidine phenyl hydrazone]", "values": [{"measurement": "compound levels in the brain (ability to access the CNS)", "setting": "[1]", "result": "significant amounts of compound 2a in the brain"}, {"measurement": "CI-MPR MFI levels", "setting": "[2]", "result": "significantly increased"}, {"measurement": "numbers of NeuN+ motor neurons in the ventral horn", "setting": "[3]", "result": "significantly higher numbers of motor neurons than vehicle-treated G93A mice"}, {"measurement": "mRNAs levels of Vps35, Vps26 and Vps29", "setting": "[4]", "result": "did not change"}]}
